Where “and” joins values, the source holds several entries; their conditions need not be identical. Equal values may be shown once.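 Method: 48-hour compound exposure of cells in 96-well plates, five concentrations, linear interpolation of endpoints. GI50 = concentration required for 50% inhibition of growth. TGI is the concentration that stops growth completely.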
Experiments:
Assay in all cases: NCI anticancer screen, dose series, 48 h
CCRF-CEM leukemia = system: CCRF-CEM leukemia
EKVX NSCLC = system: EKVX NSCLC
RXF 393 renal = system: RXF 393 renal
M14 melanoma = system: M14 melanoma
HCT-116 colon = system: HCT-116 colon
UACC-62 melanoma = system: UACC-62 melanoma
A549 NSCLC = system: A549 NSCLC
SF-539 CNS = system: SF-539 CNS
MDA-MB-231 breast = system: MDA-MB-231 breast
OVCAR-3 ovarian = system: OVCAR-3 ovarian
UACC-257 melanoma = system: UACC-257 melanoma
A498 renal = system: A498 renal
KM12 colon = system: KM12 colon
NCI/ADR-RES ovarian = system: NCI/ADR-RES ovarian
ACHN renal = system: ACHN renal
HL-60(TB) leukemia = system: HL-60(TB) leukemia
HCT-15 colon = system: HCT-15 colon
K-562 leukemia = system: K-562 leukemia
SNB-19 CNS = system: SNB-19 CNS
SK-MEL-2 melanoma = system: SK-MEL-2 melanoma
DU-145 prostate = system: DU-145 prostate
PC-3 prostate = system: PC-3 prostate
SK-MEL-28 melanoma = system: SK-MEL-28 melanoma
IGROV1 ovarian = system: IGROV1 ovarian
HOP-92 NSCLC = system: HOP-92 NSCLC
SF-268 CNS = system: SF-268 CNS
SN12C renal = system: SN12C renal
MOLT-4 leukemia = system: MOLT-4 leukemia
OVCAR-8 ovarian = system: OVCAR-8 ovarian
COLO 205 colon = system: COLO 205 colon
MCF7 breast = system: MCF7 breast
MDA-MB-435 = system: MDA-MB-435
NCI-H23 lung = system: NCI-H23 lung
HS 578T breast = system: HS 578T breast
SR leukemia = system: SR leukemia
OVCAR-4 ovarian = system: OVCAR-4 ovarian
HT29 colon = system: HT29 colon
BT-549 breast = system: BT-549 breast
NCI-H460 lung = system: NCI-H460 lung
SK-OV-3 ovarian = system: SK-OV-3 ovarian
U251 CNS = system: U251 CNS
HCC-2998 colon = system: HCC-2998 colon
SK-MEL-5 melanoma = system: SK-MEL-5 melanoma
LOX IMVI melanoma = system: LOX IMVI melanoma
HOP-62 NSCLC = system: HOP-62 NSCLC
CAKI-1 renal = system: CAKI-1 renal
UO-31 renal = system: UO-31 renal
T-47D breast = system: T-47D breast
RPMI-8226 leukemia = system: RPMI-8226 leukemia
NCI-H522 lung = system: NCI-H522 lung
SNB-75 CNS = system: SNB-75 CNS
TK-10 renal = system: TK-10 renal
MALME-3M melanoma = system: MALME-3M melanoma
NCI-H226 lung = system: NCI-H226 lung
786-0 renal = system: 786-0 renal
SW-620 colon = system: SW-620 colon
OVCAR-5 ovarian = system: OVCAR-5 ovarian
SF-295 CNS = system: SF-295 CNS

## CCC[C@H](N[C@H]1CCc2cc(F)cc(F)c2C1)C(=O)Nc1cn(C(C)(C)CNCC(C)(C)C)cn1
CCRF-CEM leukemia
  GI50: 24.5 µM and 20.7 µM
  TGI: > 100 µM
EKVX NSCLC
  GI50: 24.2 µM and 21.3 µM
  TGI: > 100 µM
RXF 393 renal
  TGI: 39.9 µM and 13.4 µM
M14 melanoma
  GI50: 13.8 µM and 14.8 µM
  TGI: 41.2 µM and 46.6 µM
HCT-116 colon
  GI50: 7.27 µM and 10.9 µM
  TGI: 23.3 µM and 28.6 µM
UACC-62 melanoma
  GI50: 16.8 µM
  TGI: 45.8 µM
A549 NSCLC
  GI50: 23.1 µM and 21.5 µM
  TGI: > 100 µM
SF-539 CNS
  GI50: 19 µM and 27.8 µM
  TGI: 47.3 µM and > 100 µM
MDA-MB-231 breast
  GI50: 15.3 µM and 12.9 µM
  TGI: 45.3 µM and 41.2 µM
OVCAR-3 ovarian
  GI50: 19.9 µM and 16.6 µM
  TGI: > 100 µM and 77.6 µM
UACC-257 melanoma
  GI50: 13.7 µM and 12.9 µM
  TGI: 61.9 µM and 40.4 µM
A498 renal
  GI50: 3.85 µM and 19.2 µM
  TGI: > 48.1 µM and 87.8 µM
KM12 colon
  GI50: 26.9 µM and 27 µM
  TGI: > 100 µM
NCI/ADR-RES ovarian
  GI50: 17.2 µM and 20.6 µM
  TGI: > 100 µM
ACHN renal
  GI50: 26.3 µM and 23.2 µM
  TGI: > 100 µM
HL-60(TB) leukemia
  GI50: 13.9 µM and 22.4 µM
  TGI: 43.3 µM and > 100 µM
HCT-15 colon
  GI50: 20.1 µM and 16.3 µM
  TGI: > 100 µM
K-562 leukemia
  GI50: 5.6 µM and 12.1 µM
  TGI: > 100 µM
SNB-19 CNS
  GI50: 35.2 µM and 29.7 µM
  TGI: > 100 µM
SK-MEL-2 melanoma
  GI50: 16.8 µM and 15.1 µM
  TGI: 42 µM and 37.2 µM
DU-145 prostate
  GI50: 34.8 µM and 35.9 µM
  TGI: > 100 µM
PC-3 prostate
  GI50: 10.9 µM and 12.4 µM
  TGI: > 100 µM
SK-MEL-28 melanoma
  GI50: 19 µM and 18 µM
  TGI: 52.9 µM and 54.8 µM
IGROV1 ovarian
  GI50: 42.6 µM and 31.5 µM
  TGI: > 100 µM
HOP-92 NSCLC
  GI50: 5.6 µM and 2.52 µM
  TGI: 40.1 µM and 27.2 µM
SF-268 CNS
  GI50: 21.8 µM and 16.5 µM
  TGI: > 100 µM
SN12C renal
  GI50: 28.6 µM and 17.5 µM
  TGI: > 100 µM
MOLT-4 leukemia
  GI50: 6.93 µM and 7.84 µM
  TGI: > 100 µM
OVCAR-8 ovarian
  GI50: 31.7 µM and 26 µM
  TGI: > 100 µM
COLO 205 colon
  GI50: 14 µM and 14.4 µM
  TGI: 28.6 µM and 29.1 µM
MCF7 breast
  GI50: 16.3 µM and 11.7 µM
  TGI: > 64.4 µM and 83.7 µM
MDA-MB-435
  GI50: 21.3 µM and 21.5 µM
  TGI: > 100 µM
NCI-H23 lung
  GI50: 24.1 µM and 22.4 µM
  TGI: > 100 µM
HS 578T breast
  GI50: 16.3 µM and 13.1 µM
  TGI: > 100 µM and 93.5 µM
SR leukemia
  GI50: 19.3 µM and 14 µM
  TGI: > 100 µM and 91.1 µM
OVCAR-4 ovarian
  GI50: 23.6 µM and 16.1 µM
  TGI: > 100 µM
HT29 colon
  GI50: 10.4 µM and 11.9 µM
  TGI: 29.5 µM and 28.8 µM
BT-549 breast
  GI50: 14.9 µM and 21 µM
  TGI: 72.2 µM and 86.2 µM
NCI-H460 lung
  GI50: 25.3 µM and 21.6 µM
  TGI: > 100 µM
SK-OV-3 ovarian
  GI50: 37.2 µM and 40.3 µM
  TGI: > 100 µM
U251 CNS
  GI50: 17.6 µM and 19.3 µM
  TGI: > 100 µM
HCC-2998 colon
  GI50: 22.3 µM and 24.9 µM
  TGI: > 100 µM
SK-MEL-5 melanoma
  GI50: 15.2 µM and 13 µM
  TGI: 29.6 µM and 26.2 µM
LOX IMVI melanoma
  GI50: 15.5 µM and 16.1 µM
  TGI: 34.3 µM and 35.9 µM
HOP-62 NSCLC
  GI50: 33.3 µM and 53.3 µM
  TGI: > 100 µM
CAKI-1 renal
  GI50: 7.69 µM and 4.75 µM
  TGI: > 47.6 µM and 42.9 µM
UO-31 renal
  GI50: 5.72 µM and 4.1 µM
  TGI: 30 µM and 27.7 µM
T-47D breast
  GI50: 9.83 µM and 14.2 µM
  TGI: > 100 µM
RPMI-8226 leukemia
  GI50: 9.57 µM and 11 µM
  TGI: 48.8 µM and 69 µM
NCI-H522 lung
  GI50: 23.9 µM and 13.4 µM
  TGI: > 100 µM and 69.6 µM
SNB-75 CNS
  GI50: 18.2 µM and 13.8 µM
  TGI: > 100 µM
TK-10 renal
  GI50: 25.1 µM and 28.9 µM
  TGI: > 100 µM
MALME-3M melanoma
  GI50: 11 µM and 12.9 µM
  TGI: 28.5 µM and 29.5 µM
NCI-H226 lung
  GI50: 26.5 µM and 14.1 µM
  TGI: > 100 µM and 92.9 µM
786-0 renal
  GI50: 14.2 µM and 32.5 µM
  TGI: 49.8 µM and > 100 µM
SW-620 colon
  GI50: 23.7 µM and 23.3 µM
  TGI: > 100 µM
OVCAR-5 ovarian
  GI50: 27 µM and 22.6 µM
  TGI: > 100 µM
SF-295 CNS
  GI50: 23.6 µM and 18.5 µM
  TGI: > 100 µM
